Structures are written as SMILES.

Experiment [1] deals with FII, FVII and FX. The experiment is described as follows: Sequential PT-INR (PP-INR) measurements over 49 days in a single patient starting on warfarin. The class given is in vivo, human. The settings on record: FIG. 6, grey zone. The procedure: Both the Quick prothrombin time (PT) and the Owren's prothrombin time (prothrombin proconverting time, P&P test) were measured on patient samples. The STA-R coagulation analyzer was used (Diagnostika Stago, Asnieres, France). The PT was done using the STA-Néoplastine® CI plus as coagulation reagent, with and ISI value of 1.3 and the P&P was done using the STA-SPA 50 reagent with ISI of 1.01 (both from Diagnostika Stago). The P&P reagent is similar to the PT reagent but also consists of added absorbed bovine plasma as a source of coagulation factor V and fibrinogen and, thus, is only sensitive to the activity of FII, FVII and FX. The P&P percentages were calculated from a standard curve based on serially diluted pooled plasma in Owren's buffer. The INR is calculate as described above.
In FIG. 6 we show sequential measurements of Fiix-INR, PP-INR, FII, FVII and FX over 49 days in a single patient starting on warfarin. The amount of coagulation factors (percentage) is shown on the left Y-axis and the INR value on the right Y-axis. The change in INR in relation to changes in concentrations of the VKD factors can be derived from the graph. […]

Experiment [2] deals with FII and FX. The experiment is described as follows: Sequential Fiix-INR (Fiix-PT) measurements over 49 days in a single patient starting on warfarin. The class given is in vivo, human. The conditions noted are these: FIG. 6. From the text:
The test results may be obtained as clotting time, clotting time ratio or any other endpoint measuring thrombin generation or fibrin formation. […] Since this is a variant of the prothrombin time we call it “Fiix-prothrombin time” or Fiix-PT.
In our new method, which we call Fiix-method, a test plasma sample (patient plasma) is mixed with normal plasma that has been immunodepleted of both FII and FX (Fiix-deficient plasma). Using such mixture, by adding thromboplastin and calcium, a prothrombin time variant can be measured that is only sensitive to FII and FX, ie Fiix-PT. In the Fiix-PT the proportions of test plasma to Fiix-deficient plasma can be in the range from 1:1 to 1:20 parts, preferably in the range from 1:2 to 1:10 (see below).
Based on the experiments shown in FIG. 4 we decided to measure the Fiix-PT by mixing […] of a 1:7 dilution of test plasma with 25 uL of Fiix-deficient plasma (i.e. final proportion 1 part test plasma to 2.2 parts Fiix-deficient plasma). We then measured “Fiix-PT” in samples from 38 patients on stable warfarin therapy and calculated the international normalized ratio (“Fiix-INR”). […] Corresponding results were found when Fiix-INR was correlated with Quick PT based INR(PT-INR, data not shown).
In FIG. 6 we show sequential measurements of Fiix-INR, PP-INR, FII, FVII and FX over 49 days in a single patient starting on warfarin. […]

As for `CC(=O)CC(c1ccccc1)c1c(O)c2ccccc2oc1=O` (centres unmarked) [warfarin], in experiment [1], the “day on which the patient has reached an acceptable anticoagulated range by PT-INR” value was 3 days. Besides, in experiment [2], the “day on which the patient reaches an acceptable INR value (acceptable anticoagulation) by Fiix-INR” value stood at 5 days.
